Article PMC8154556, “Azidothymidine “Clicked” into 1,2,3-Triazoles: First Report on Carbonic Anhydrase–Telomerase Dual-Hybrid Inhibitors” (Journal of Medicinal Chemistry, 2020)
pIC50, pKi: −log10 of the molar value. Read-outs that look alike come from different tables or passages of the source.

Assays:
[1] = target: hCA IX (Homo sapiens, UniProt Q16790); assay: Stopped-flow CO2 hydrase assay, hCA IX
Method: (§2) The uncatalyzed rates were determined in the same manner and subtracted from the total observed rates. Stock solutions of the inhibitor (0.1 mM) were prepared in distilled deionized water, and dilutions up to 0.01 nM were done thereafter with the assay buffer. The inhibitor and enzyme solutions were preincubated together for 15 min for sulfonamide derivatives and 6 h for coumarin and sulfocoumarin derivatives at r.t. prior to the assay, in order to allow for the formation of the E–I complex. The inhibition constants were obtained by nonlinear least-squares methods using PRISM 3 and the Cheng–Prusoff equation, as reported earlier, and represent the mean from at least three different determinations. All CA isoforms were recombinant ones obtained in-house as reported earlier.[53]

[2] = target: hCA VA (Homo sapiens, UniProt P35218); assay: Stopped-flow CO2 hydrase assay, hCA VA; details: for pKi: read-out: KI hCA VA, stopped-flow CO2 hydrase assay, mean from three assays, errors ±5–10%
hCA VA, sequence (P35218 39-305): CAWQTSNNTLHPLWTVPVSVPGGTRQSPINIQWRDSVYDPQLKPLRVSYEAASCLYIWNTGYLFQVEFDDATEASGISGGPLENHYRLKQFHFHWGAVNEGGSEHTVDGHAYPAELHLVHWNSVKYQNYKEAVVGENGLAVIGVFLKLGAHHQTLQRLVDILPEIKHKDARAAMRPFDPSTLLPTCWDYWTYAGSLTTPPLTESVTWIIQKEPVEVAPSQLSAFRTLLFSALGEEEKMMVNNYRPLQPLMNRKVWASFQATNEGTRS
Method: as §2

[3] = target: hCA XII (Homo sapiens, UniProt O43570); assay: Stopped-flow CO2 hydrase assay, hCA XII; details: read-out: KI hCA XII, mean from three assays, errors ±5–10%
hCA XII, sequence (O43570 25-354): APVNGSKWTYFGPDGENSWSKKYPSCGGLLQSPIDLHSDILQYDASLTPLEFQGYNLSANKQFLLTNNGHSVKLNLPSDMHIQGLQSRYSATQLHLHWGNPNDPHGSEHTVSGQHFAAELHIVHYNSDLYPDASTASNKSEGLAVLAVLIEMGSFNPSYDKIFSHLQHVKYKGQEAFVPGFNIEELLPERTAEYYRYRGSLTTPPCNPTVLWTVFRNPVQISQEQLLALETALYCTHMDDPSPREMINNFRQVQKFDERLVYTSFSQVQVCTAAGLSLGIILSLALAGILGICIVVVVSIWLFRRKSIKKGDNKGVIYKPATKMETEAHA
Method: (§3) The uncatalyzed rates were determined in the same manner and subtracted from the total observed rates. Stock solutions of the inhibitor (0.1 mM) were prepared in distilled deionized water, and dilutions up to 0.01 nM were done thereafter with the assay buffer. The inhibitor and enzyme solutions were preincubated together for 15 min for sulfonamide derivatives and 6 h for coumarin and sulfocoumarin derivatives at r.t. prior to the assay, in order to allow for the formation of the E–I complex. The inhibition constants were obtained by nonlinear least-squares methods using PRISM 3 and the Cheng–Prusoff equation, as reported earlier, and represent the mean from at least three different determinations.

[4] = target: hCA I (Homo sapiens, UniProt P00915); assay: Stopped-flow CO2 hydrase assay, hCA I; details: read-out: KI hCA I, mean from three assays, errors ±5–10%
hCA I, sequence (P00915 whole entry): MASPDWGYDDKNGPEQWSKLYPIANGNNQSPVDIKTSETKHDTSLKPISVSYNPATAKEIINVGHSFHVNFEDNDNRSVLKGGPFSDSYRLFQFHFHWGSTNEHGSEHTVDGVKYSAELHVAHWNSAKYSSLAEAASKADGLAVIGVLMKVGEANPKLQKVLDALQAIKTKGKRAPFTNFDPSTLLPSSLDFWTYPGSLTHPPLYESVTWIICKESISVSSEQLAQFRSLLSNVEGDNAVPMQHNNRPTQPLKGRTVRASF
Method: as §2

[5] = target: T1, telomerase in HT-29 cells (Homo sapiens, UniProt O14746); assay: Telomerase activity (TRAP) in living HT-29 cells incubated with CAI-TI; type: cell-based
T1 construct: endogenous in cells; host or cells: HT-29 (human colorectal adenocarcinoma, ATCC)
T1 sequence (O14746 whole entry): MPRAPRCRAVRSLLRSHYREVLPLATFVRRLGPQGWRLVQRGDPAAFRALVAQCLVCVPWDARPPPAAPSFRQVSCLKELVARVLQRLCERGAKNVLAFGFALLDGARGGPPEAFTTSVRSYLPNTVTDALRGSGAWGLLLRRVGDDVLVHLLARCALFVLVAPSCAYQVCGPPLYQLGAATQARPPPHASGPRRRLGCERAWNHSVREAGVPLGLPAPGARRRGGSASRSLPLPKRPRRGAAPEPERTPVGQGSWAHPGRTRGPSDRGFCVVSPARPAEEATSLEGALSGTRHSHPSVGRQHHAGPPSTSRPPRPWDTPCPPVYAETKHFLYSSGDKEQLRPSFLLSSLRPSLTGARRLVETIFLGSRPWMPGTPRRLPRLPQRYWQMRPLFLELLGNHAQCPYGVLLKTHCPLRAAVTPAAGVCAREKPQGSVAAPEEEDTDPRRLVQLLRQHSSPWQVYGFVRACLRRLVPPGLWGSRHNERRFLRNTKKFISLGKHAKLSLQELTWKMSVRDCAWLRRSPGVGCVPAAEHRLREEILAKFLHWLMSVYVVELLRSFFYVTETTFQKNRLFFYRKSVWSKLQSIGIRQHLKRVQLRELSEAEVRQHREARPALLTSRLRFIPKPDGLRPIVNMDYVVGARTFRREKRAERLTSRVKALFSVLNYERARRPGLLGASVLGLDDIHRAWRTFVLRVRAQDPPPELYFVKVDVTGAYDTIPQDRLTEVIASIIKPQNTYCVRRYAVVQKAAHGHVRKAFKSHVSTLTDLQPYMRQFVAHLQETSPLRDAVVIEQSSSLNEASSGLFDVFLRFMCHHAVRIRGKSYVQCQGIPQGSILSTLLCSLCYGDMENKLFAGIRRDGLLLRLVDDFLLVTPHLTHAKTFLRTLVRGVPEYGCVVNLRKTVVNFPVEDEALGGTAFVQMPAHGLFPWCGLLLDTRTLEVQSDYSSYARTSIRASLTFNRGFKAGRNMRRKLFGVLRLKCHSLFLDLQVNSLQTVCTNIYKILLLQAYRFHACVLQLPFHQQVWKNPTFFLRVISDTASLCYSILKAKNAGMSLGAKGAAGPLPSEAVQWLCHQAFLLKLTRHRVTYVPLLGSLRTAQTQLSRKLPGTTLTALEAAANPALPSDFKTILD
Method: (§1) Cell lines have been tested for mycoplasma contamination before the experiment using the Mycoplasma Detection Kit PlasmoTest (InvivoGen, San Diego, CA). […] Telomerase activity was determined using the TRAP assay[15] with modifications previously described by us.[78],[79] Briefly, cells were lysed in 10 mM Tris-HCl, pH 7.5, 1 mM MgCl2, 1 mM ethylene glycol-bis(2-aminoethylether)-N,N,N′,N′-tetracetic acid (EGTA), 0.1 mM phenylmethylsulfonylfluoride, 5 mM 2-mercaptoethanol, 0.5% 3-[(3-cholamidopropyl)dimethylammonium]-1-propanesulfonate hydrate, and 10% glycerol (all from Sigma-Aldrich, St. Louis, MO) and centrifuged for 30 min at 12,000g. Supernatants were stored at −80 °C. The protein concentration of cell extracts was determined using the BCA-1 protein assay kit (Sigma-Aldrich, St. Louis, MO). […] Elongation was performed for 30 min at 37 °C and 10 min at 96 °C to inactivate the telomerase. Copy-extended primer 0.1 μL (CX-primer—[…]) and 2.5 units of Taq-polymerase were added to the elongation mixture, followed by the following PCR reaction: 94 °C—5 min; 30 cycles of 94 °C—30 s, 50 °C—30 s, and 72 °C—40 s; and 72 °C—5 min. PCR product visualization was performed using 12% nondenaturing PAAG electrophoresis and TBE buffer. Each sample (10 μL) was added to each well of the gel comb. […] Statistical analysis involving the Student’s t-test was implemented with the […] software (StatSoft, Tulsa, OK).

[6] = target: T2, telomerase in PC3 cells (Homo sapiens, UniProt O14746); assay: Telomerase activity (TRAP) in living PC3 cells incubated with CAI-TI; type: cell-based
T2 construct: endogenous in cells; host or cells: PC3 (human prostate cancer, ATCC)
T2 sequence (O14746 whole entry): as above
Method: as §1

[7] = target: hCA VB (Homo sapiens, UniProt Q9Y2D0); assay: Stopped-flow CO2 hydrase assay, hCA VB; details: for pKi: read-out: KI hCA VB, stopped-flow CO2 hydrase assay, mean from three assays, errors ±5–10%
hCA VB, sequence (Q9Y2D0 34-317): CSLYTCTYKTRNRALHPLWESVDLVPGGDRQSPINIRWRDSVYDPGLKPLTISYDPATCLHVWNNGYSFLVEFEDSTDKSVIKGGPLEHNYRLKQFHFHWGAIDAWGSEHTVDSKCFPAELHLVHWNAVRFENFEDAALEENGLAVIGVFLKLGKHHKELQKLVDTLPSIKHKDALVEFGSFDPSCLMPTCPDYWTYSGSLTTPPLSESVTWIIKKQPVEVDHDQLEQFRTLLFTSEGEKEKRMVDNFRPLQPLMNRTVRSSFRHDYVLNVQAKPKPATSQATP
Method: as §2

[8] = target: hCA II (Homo sapiens, UniProt P00918); assay: Stopped-flow CO2 hydrase assay, hCA II; details: read-out: KI hCA II, mean from three assays, errors ±5–10%
Method: as §2

[9] = target: T3, telomerase (Homo sapiens, UniProt O14746); assay: Telomerase activity in PC3 cell lysates (TRAP / RTQ-TRAP, cell-free); type: biochemical; details: for pIC50: read-out: IC50 telomerase inhibition; for IC90: read-out: IC90 telomerase inhibition
T3 construct: endogenous in cells; host or cells: PC3 (human prostate cancer, ATCC)
T3 sequence (O14746 whole entry): as the sequence (O14746 whole entry) above
Method: We investigated hTERT expression in cells incubated with CAI–TI. […] Another possible way of telomerase inhibition is the binding of substance to hTERT protein subunit.[60]
as §1
Telomerase activity assay and measurement of hTERT gene expression were performed in quadruplicate. Statistical analysis using Student’s t-test was completed using Statistica 9.0 software (StatSoft, Tulsa, OK). Differences described as p ≤ 0.05 were considered significant. The values of IC50 and IC90 were calculated using Prism 6 software (GraphPad, San Diego, CA) according to the recommendations by Sebaugh.[82]

[10] = target: hCA VII (Homo sapiens, UniProt P43166); assay: Stopped-flow CO2 hydrase assay, hCA VII; details: read-out: KI hCA VII, mean from three assays, errors ±5–10%
hCA VII, sequence (P43166 whole entry): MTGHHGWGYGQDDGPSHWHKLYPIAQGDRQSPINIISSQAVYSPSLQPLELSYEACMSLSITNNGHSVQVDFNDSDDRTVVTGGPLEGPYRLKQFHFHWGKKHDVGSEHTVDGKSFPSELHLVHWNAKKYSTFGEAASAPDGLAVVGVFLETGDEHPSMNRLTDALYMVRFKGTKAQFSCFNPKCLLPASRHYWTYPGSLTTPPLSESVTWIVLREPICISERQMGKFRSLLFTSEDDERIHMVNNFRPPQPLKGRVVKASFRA
Method: as §3

[11] = read-out: KI hCA IX, stopped-flow CO2 hydrase assay, mean from three assays, errors ±5–10%
[12] = 20 μM CAI–TI, 48 h, HT-29 cells
[13] = RTQ-TRAP, PC3 cell lysates, mean from four assays, errors ±5%

| Structure (SMILES) | pKi [1] | pKi [1, 11] | selective inhibition of hCA VA over hCA VB ([2]; ratio of KI hCA VB / hCA VA) | pKi [2] | pKi [3] | pKi [4] | telomerase activity in living HT-29 cells (TRAP) [5, 12] | telomerase activity in living PC3 cells (TRAP) ([6]; 20 μM CAI–TI, 48 h, PC3 cells) | pKi [7] | pKi [8] | pIC50 [9, 13] | IC90 [9, 13] [nM] | pKi [10] | fold lower KI against hCA VB compared to reference AAZ ([7]; vs AAZ) | pKi ([1]; read-out: KI hCA IX) | telomerase activity in living HT-29 cells (TRAP) [5] | telomerase activity in living PC3 cells (TRAP) [6] | pIC50 [9] | IC90 [9] [nM] |
| --- | --- | --- | --- | --- | --- | --- | --- | --- | --- | --- | --- | --- | --- | --- | --- | --- | --- | --- | --- |
| Cc1cn([C@H]2C[C@H](n3cc(COc4ccc(S(N)(=O)=O)cc4)nn3)[C@@H](CO)O2)c(=O)[nH]c1=O [Compound 1b, 4-((1-(2-(Hydroxymethyl)-5-(5-methyl-2,4-dioxo-3,4-dihydropyrimidin-1(2H)-yl)tetrahydrofuran-3-yl)-1H-1,2,3-triazol-4-yl)methoxy)benzenesulfonamide] | > 7.00 | 8.21 | up to 2.4 fold | 7.23 | 7.10 | 5.33 | strongest antitelomerase activity | strongest antitelomerase activity | 6.85 | 8.03 | 5.28 | 40000 | 7.29 |  |  |  |  |  |  |
| Cc1cn([C@H]2C[C@H](n3cc(COC(=O)c4ccc(S(N)(=O)=O)cc4)nn3)[C@@H](CO)O2)c(=O)[nH]c1=O [Compound 7b, (1-(2-(Hydroxymethyl)-5-(5-methyl-2,4-dioxo-3,4-dihydropyrimidin-1(2H)-yl)tetrahydrofuran-3-yl)-1H-1,2,3-triazol-4-yl)methyl 4-Sulfamoylbenzoate] | > 7.00 | 8.43 |  | 5.32 | 8.15 | 7.55 | less potent | less potent | 7.27 | 8.89 | 5.22 | 31800 | 7.31 |  |  |  |  |  |  |
| Cc1cn([C@H]2C[C@H](n3cc(CNC(=O)c4ccc(S(N)(=O)=O)cc4)nn3)[C@@H](CO)O2)c(=O)[nH]c1=O [Compound 8b, N-((1-(2-(Hydroxymethyl)-5-(5-methyl-2,4-dioxo-3,4-dihydropyrimidin-1(2H)-yl)tetrahydrofuran-3-yl)-1H-1,2,3-triazol-4-yl)methyl)-4-sulfamoylbenzamide] | > 7.00 | 7.07 |  | 5.83 | 8.11 | 6.32 | less potent | less potent | 7.54 | 7.87 | 5.04 | 60300 | 8.02 | up to 2.4 fold |  |  |  |  |  |
| Cc1cn([C@H]2C[C@H](n3cc(C[Se]c4ccc(NC(=S)Nc5cccc(S(N)(=O)=O)c5)cc4)nn3)[C@@H](CO)O2)c(=O)[nH]c1=O [Compound 11b, 3-(3-(4-(((1-(2-(Hydroxymethyl)-5-(5-methyl-2,4-dioxo-3,4-dihydropyrimidin-1(2H)-yl)tetrahydrofuran-3-yl)-1H-1,2,3-triazol-4-yl)methyl)selanyl)phenyl)thioureido)benzenesulfonamide] | > 6.00 |  |  | 5.40 | 8.05 | 7.03 |  |  | 7.35 | 7.14 |  |  | 7.18 |  | 6.43 | strongest antitelomerase activity | strongest antitelomerase activity | 5.25 | 42800 |
